Experiment [1] has as its target alpha synuclein peptide 61-90 (SEQ.ID.No.:3) (Homo sapiens, UniProt P37840). Put plainly: Thioflavin T fluorescence disaggregation assay of aggregated alpha synuclein. Format: biochemical. How it is done: Prior to assay, concentrated alpha synuclein peptide 61-90 (SEQ.ID.No.:3) was diluted into assay buffer containing Thioflavin T (20 uM) such that a signal to noise of approximately 5 to 1 was achieved. Rifampicin was maintained in 8% DMSO at a concentration of 2 mM. To break up super aggregates, the solution was sonicated using a Heat System sonicator with a microprobe. The samples were sonicated in 30 ml volume in a Coming 50 ml centrifuge tube for 25, 3 second bursts. The assay was run in LJL HE (LJL Biosystems) plates as follows: 18 μl of alpha synuclein/thioflavin T mixture was added to the well followed by 2 μl of a 30% DMSO or by rifampicin diluted in 30% DMSO. As a control, buffer with thioflavin T was added to separate wells in the absence of alpha synuclein. The samples were incubated at room temperature for the times indicated in FIG. 1 and were then read on the LJL reader using wavelengths of 440 nm and 485 nm.
To test the effect of incubation times on disaggregation of alpha synuclein, alpha synuclein was incubated with a rifampicin concentration curve ranging from 0.1 μM to 100 μM for 2 and 5 hours. The data are the mean of 11 samples±the standard deviation at each time point.
The signal to background are from quadruplicate samples of buffer (low value) and alpha synuclein/TFT buffer (high value). The EC50 were generated from 11 samples of each time point.
To narrow down the incubation times as well as to identify the concentrations of rifampicin to use, the above study was repeated using incubation times ranging from 5 minutes to 2 hours and rifampicin concentrations of 1.56 μM to 15 μM.

Experiment [2] concerns the target T1, alpha synuclein protein (Homo sapiens, UniProt P37840).
T1 construct: made in house; host or cells: E. coli ER2566
The experiment is described as follows: Thioflavin T alpha-synuclein aggregation assay with or without seeding. Format: biochemical. Conditions: peptide used for seeding; Thioflavin T fluorescence. How it is done: A fluorescence-based TFT high-throughput screening assay was developed for the a-synuclein aggregation. Thioflavin T absorbs at 450 nm and emits at 485 nm; fluorescence increases 40-fold in the presence of beta-sheet conformation (LeVine and Scholten). Thioflavin T was obtained from Fluka Chemika. Twenty four micrograms (24 μg) of alpha synuclein protein in assay buffer (0.2 M potassium chloride pH=6; 0.075% sodium azide) was added to microvolume multiwell plate holding 10 μL. Then, Thioflavin T (TFT) was added to each well to a final concentration of 20 μM and contents were thoroughly mixed. Alpha-synuclein was allowed to fully aggregated prior to conducting a dissaggregation assay. Degree of aggregation was measured by increase in Thioflavin T fluorescence. Alpha-synuclein aggregation was conducted with or without seeding (using a peptide to enhance the rate of aggregation).
Alpha synuclein aggregates through the formation of a beta sheet structure, measured by increased fluorescence of Thioflavin T at 485 nm.

The source of these data is US20030027210A1, “Alpha synuclein aggregation assays” (priority 2001, published 2003).

Like-named read-outs stand apart in the source and are kept apart here.

`CO[C@H]1/C=C/O[C@@]2(C)Oc3c(C)c(O)c4c(O)c(c(/C=N/N5CCN(C)CC5)c(O)c4c3C2=O)NC(=O)/C(C)=C\C=C\[C@H](C)[C@H](O)[C@@H](C)[C@@H](O)[C@@H](C)[C@H](OC(C)=O)[C@@H]1C` [Rifampicin]: the 50% effective concentration (EC50) (commonly the midpoint of the concentration-response curve) in experiment [1] (incubation time 15 minutes, rifampicin 1.56 μM to 15 μM, read-out: EC50 for Rifampicin to disaggregate alpha synuclein) was found to be 311 µM; in experiment [1] (incubation time 30 minutes, rifampicin 1.56 μM to 15 μM, read-out: EC50 for Rifampicin to disaggregate alpha synuclein), 76 µM; in experiment [1] (incubation time 60 minutes, rifampicin 1.56 μM to 15 μM, read-out: EC50 for Rifampicin to disaggregate alpha synuclein), 16.8 µM; in experiment [1] (incubation time 2 hours, rifampicin 0.1 μM to 100 μM, room temperature, read-out: Rifampicin EC50), 23.9 µM; in experiment [1] (incubation time 120 minutes, rifampicin 1.56 μM to 15 μM, read-out: EC50 for Rifampicin to disaggregate alpha synuclein), 10.6 µM; in experiment [1] (incubation time 5 hours, rifampicin 0.1 μM to 100 μM, room temperature, read-out: Rifampicin EC50) it was 21 µM.

For the molecule “EQVTNVGGAVVTGVT [syn 61-75, synthetic peptide of residues 61 to 75 of human alpha synuclein, enhances rate of aggregation]”, the “effect of seeding peptide on rate of synuclein aggregation” value in experiment [2] was “speed up synuclein aggregation”.
